These results are taken from patent US20240101540A1, “TARGETED PROTEIN DEGRADATION OF PARP14 FOR USE IN THERAPY” (Ribon Therapeutics, Inc., priority 2022, published 2024).

Structures can show the parent of a compound that is named as a salt. Where two headings read alike, the source gives them in different places.

In the test the target is T1, catalytic domain of human PARP14 (residues 1611 to 1801) with NanoLuc tag (Homo sapiens, UniProt Q460N5).
T1 construct: expressed in transfected cells; host or cells: HEK-293T cells (ATCC), pcDNA3.1(-) vector
T1 sequence (Q460N5 1611-1801): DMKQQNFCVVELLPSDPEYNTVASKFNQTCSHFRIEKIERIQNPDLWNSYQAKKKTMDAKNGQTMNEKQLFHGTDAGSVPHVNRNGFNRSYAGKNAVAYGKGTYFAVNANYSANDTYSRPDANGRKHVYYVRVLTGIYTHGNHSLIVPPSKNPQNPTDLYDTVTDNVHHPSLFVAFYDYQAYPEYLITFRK
In words: NanoLuc assay for the degradation of PARP14 (NanoLuc-tagged PARP14 overexpressed in HEK-293T cells, 2 hours). It counts as cell-based. The following applies: Assay A (Example A): NanoLuc-tagged PARP14 degradation in HEK-293T cells.

The term DC50 denotes the concentration at which degradation of the target reaches its halfway point.

For the compound `O=C1CCC(Nc2ccc(OC3CC(CN4CCC(COc5cc(F)c6c(=O)[nH]c(CSC7CCOCC7)nc6c5)CC4)C3)cc2)C(=O)N1` (centres unmarked) [Example 47, 3-({4-[3-({4-[({5-fluoro-2-[(oxan-4-ylsulfanyl)methyl]-4-oxo-3H-quinazolin-7-yl}oxy)methyl]piperidin-1-yl}methyl)cyclobutoxy]phenyl}amino)piperidine-2,6-dione], where the note is “read-out: DC50”, the DC50 was less than 100 nM.
Compound `O=C1CCC(Nc2ccc(N3CCN(CCN4CCC(COc5cc(F)c6c(=O)[nH]c(CSC7CCOCC7)nc6c5)CC4)CC3)cc2)C(=O)N1` (centres unmarked) [Example 48, 3-((4-(4-(2-(4-(((5-fluoro-4-oxo-2-(((tetrahydro-2H-pyran-4-yl)thio)methyl)-3,4-dihydroquinazolin-7-yl)oxy)methyl)piperidin-1-yl)ethyl)piperazin-1-yl)phenyl)amino)piperidine-2,6-dione] registered a DC50 of less than 100 nM.
For `O=C1CCC(Nc2ccc(C3CCN(CCN4CCC(COc5cc(F)c6c(=O)[nH]c(CSC7CCOCC7)nc6c5)CC4)CC3)cc2)C(=O)N1` (centres unmarked) [Example 49, 3-((4-(1-(2-(4-(((5-fluoro-4-oxo-2-(((tetrahydro-2H-pyran-4-yl)thio)methyl)-3,4-dihydroquinazolin-7-yl)oxy)methyl)piperidin-1-yl)ethyl)piperidin-4-yl)phenyl)amino)piperidine-2,6-dione], the 50% degradation concentration (DC50) (read-out: DC50) was less than 100 nM.
Turning to `O=C1CCC(Nc2ccc(N3CCN(CCN4CCC(COc5cc(F)c6c(=O)[nH]c(CSC7CCOCC7)nc6c5)CC4)CC3)c(C(F)(F)F)c2)C(=O)N1` (centres unmarked) [Example 50, 3-((4-(4-(2-(4-(((5-fluoro-4-oxo-2-(((tetrahydro-2H-pyran-4-yl)thio)methyl)-3,4-dihydroquinazolin-7-yl)oxy)methyl)piperidin-1-yl)ethyl)piperazin-1-yl)-3-(trifluoromethyl)phenyl)amino)piperidine-2,6-dione], the half-maximal degradation concentration (DC50) (read-out: DC50) is less than 100 nM.
As for `O=C1CCC(Nc2ccc(N3CC(N4CCC(COc5cc(F)c6c(=O)[nH]c(CSC7CCOCC7)nc6c5)CC4)C3)cc2)C(=O)N1` (centres unmarked) [Example 51, 3-((4-(3-(4-(((5-fluoro-4-oxo-2-(((tetrahydro-2H-pyran-4-yl)thio)methyl)-3,4-dihydroquinazolin-7-yl)oxy)methyl)piperidin-1-yl)azetidin-1-yl)phenyl)amino)piperidine-2,6-dione], under “read-out: DC50”, the half-maximal degradation concentration (DC50) is less than 100 nM.
As for `O=C1CCC(Nc2ccc(N3CC(N4CCC(COc5cc(F)c6c(=O)[nH]c(CSC7CCOCC7)nc6c5)C(F)(F)C4)C3)cc2)C(=O)N1` (centres unmarked) [Example 52, 3-((4-(3-(3,3-difluoro-4-(((5-fluoro-4-oxo-2-(((tetrahydro-2H-pyran-4-yl)thio)methyl)-3,4-dihydroquinazolin-7-yl)oxy)methyl)piperidin-1-yl)azetidin-1-yl)phenyl)amino)piperidine-2,6-dione formate salt], the DC50 (read-out: DC50) is less than 100 nM.
For the compound `O=C1CCC(Nc2ccc(N3CC(CN4CCC(COc5cc(F)c6c(=O)[nH]c(CSC7CCOCC7)nc6c5)CC4)C3)cc2)C(=O)N1` (centres unmarked) [Example 53, 3-((4-(3-((4-(((5-fluoro-4-oxo-2-(((tetrahydro-2H-pyran-4-yl)thio)methyl)-3,4-dihydroquinazolin-7-yl)oxy)methyl)piperidin-1-yl)methyl)azetidin-1-yl)phenyl)amino)piperidine-2,6-dione], the half-maximal degradation concentration (DC50) (read-out: DC50) is less than 100 nM.
For the compound `O=C1CCN(c2cccc(N3CC(CN4CCC(COc5cc(F)c6c(=O)[nH]c(CSC7CCOCC7)nc6c5)CC4)C3)c2)C(=O)N1` [Example 54, 1-(3-(3-((4-(((5-fluoro-4-oxo-2-(((tetrahydro-2H-pyran-4-yl)thio)methyl)-3,4-dihydroquinazolin-7-yl)oxy)methyl)piperidin-1-yl)methyl)azetidin-1-yl)phenyl)dihydropyrimidine-2,4(1H,3H)-dione formate salt], the half-maximal degradation concentration (DC50) (read-out: DC50) was less than 100 nM.
Consider `O=C1CCC(Nc2ccc(OCCN3CCC(COc4cc(F)c5c(=O)[nH]c(CSC6CCOCC6)nc5c4)CC3)cc2)C(=O)N1` (centres unmarked) [Example 58, 3-((4-(2-(4-(((5-fluoro-4-oxo-2-(((tetrahydro-2H-pyran-4-yl)thio)methyl)-3,4-dihydroquinazolin-7-yl)oxy)methyl)piperidin-1-yl)ethoxy)phenyl)amino)piperidine-2,6-dione], for which, under “read-out: DC50”, the half-maximal degradation concentration (DC50) is less than 100 nM.
`O=C1CCC(N2Cc3cc(N4CCN(CCN5CCC(COc6cc(F)c7c(=O)[nH]c(CSC8CCOCC8)nc7c6)CC5)CC4)ccc3C2=O)C(=O)N1` (centres unmarked) [Example 59, 3-(5-(4-(2-(4-(((5-fluoro-4-oxo-2-(((tetrahydro-2H-pyran-4-yl)thio)methyl)-3,4-dihydroquinazolin-7-yl)oxy)methyl)piperidin-1-yl)ethyl)piperazin-1-yl)-1-oxoisoindolin-2-yl)piperidine-2,6-dione]: the DC50 (read-out: DC50) was less than 100 nM.
`O=C1CCC(N2Cc3c(cccc3N3CCN(CCN4CCC(COc5cc(F)c6c(=O)[nH]c(CSC7CCOCC7)nc6c5)CC4)CC3)C2=O)C(=O)N1` (centres unmarked) [Example 60, 3-(4-(4-(2-(4-(((5-fluoro-4-oxo-2-(((tetrahydro-2H-pyran-4-yl)thio)methyl)-3,4-dihydroquinazolin-7-yl)oxy)methyl)piperidin-1-yl)ethyl)piperazin-1-yl)-1-oxoisoindolin-2-yl)piperidine-2,6-dione]: the DC50 (read-out: DC50) was less than 100 nM.
For `O=C1CCC(N2C(=O)c3cccc(N4CCN(CCN5CCC(COc6cc(F)c7c(=O)[nH]c(CSC8CCOCC8)nc7c6)CC5)CC4)c3C2=O)C(=O)N1` (centres unmarked) [Example 61, 2-(2,6-dioxopiperidin-3-yl)-4-(4-(2-(4-(((5-fluoro-4-oxo-2-(((tetrahydro-2H-pyran-4-yl)thio)methyl)-3,4-dihydroquinazolin-7-yl)oxy)methyl)piperidin-1-yl)ethyl)piperazin-1-yl)isoindoline-1,3-dione], the half-maximal degradation concentration (DC50) (read-out: DC50) is less than 100 nM.
`O=C1CCC(N2C(=O)c3ccc(N4CCN(CCN5CCC(COc6cc(F)c7c(=O)[nH]c(CSC8CCOCC8)nc7c6)CC5)CC4)cc3C2=O)C(=O)N1` (centres unmarked) [Example 62, 2-(2,6-dioxopiperidin-3-yl)-5-(4-(2-(4-(((5-fluoro-4-oxo-2-(((tetrahydro-2H-pyran-4-yl)thio)methyl)-3,4-dihydroquinazolin-7-yl)oxy)methyl)piperidin-1-yl)ethyl)piperazin-1-yl)isoindoline-1,3-dione]: the DC50 (read-out: DC50) was less than 100 nM.
Still for that read-out and setting: the value for `O=C1CCC(Nc2cccc(N3CCN(CCN4CCC(COc5cc(F)c6c(=O)[nH]c(CSC7CCOCC7)nc6c5)CC4)CC3)c2)C(=O)N1` (centres unmarked) [Example 63, 3-((3-(4-(2-(4-(((5-fluoro-4-oxo-2-(((tetrahydro-2H-pyran-4-yl)thio)methyl)-3,4-dihydroquinazolin-7-yl)oxy)methyl)piperidin-1-yl)ethyl)piperazin-1-yl)phenyl)amino)piperidine-2,6-dione] was less than 100 nM; that for `O=C1CCC(Oc2ccc(N3CCN(CCN4CCC(COc5cc(F)c6c(=O)[nH]c(CSC7CCOCC7)nc6c5)CC4)CC3)cc2)C(=O)N1` (centres unmarked) [Example 65, 3-(4-(4-(2-(4-(((5-fluoro-4-oxo-2-(((tetrahydro-2H-pyran-4-yl)thio)methyl)-3,4-dihydroquinazolin-7-yl)oxy)methyl)piperidin-1-yl)ethyl)piperazin-1-yl)phenoxy)piperidine-2,6-dione] was less than 100 nM; that for `CN(c1ccc(N2CCN(CCN3CCC(COc4cc(F)c5c(=O)[nH]c(CSC6CCOCC6)nc5c4)CC3)CC2)cc1)C1CCC(=O)NC1=O` (centres unmarked) [Example 66, 3-((4-(4-(2-(4-(((5-fluoro-4-oxo-2-(((tetrahydro-2H-pyran-4-yl)thio)methyl)-3,4-dihydroquinazolin-7-yl)oxy)methyl)piperidin-1-yl)ethyl)piperazin-1-yl)phenyl)(methyl)amino)piperidine-2,6-dione] was less than 100 nM.
Same read-out and setting: the value for `O=C1CCC(Nc2cccc(C3CCN(CCN4CCC(COc5cc(F)c6c(=O)[nH]c(CSC7CCOCC7)nc6c5)CC4)CC3)c2)C(=O)N1` (centres unmarked) [Example 67, 3-((3-(1-(2-(4-(((5-fluoro-4-oxo-2-(((tetrahydro-2H-pyran-4-yl)thio)methyl)-3,4-dihydroquinazolin-7-yl)oxy)methyl)piperidin-1-yl)ethyl)piperidin-4-yl)phenyl)amino)piperidine-2,6-dione] was less than 100 nM.
Same read-out and setting: the value for `O=C1CCC(Nc2ccc(N3CCN(CCN4CCC(COc5cc(F)c6c(=O)[nH]c(COC7CCOCC7)nc6c5)CC4)CC3)cc2)C(=O)N1` (centres unmarked) [Example 68, 3-((4-(4-(2-(4-(((5-fluoro-4-oxo-2-(((tetrahydro-2H-pyran-4-yl)oxy)methyl)-3,4-dihydroquinazolin-7-yl)oxy)methyl)piperidin-1-yl)ethyl)piperazin-1-yl)phenyl)amino)piperidine-2,6-dione] was less than 100 nM.
On to `O=C1CCC(Nc2ccc(N3CCN(CCN4CCC(COc5cc(F)c6c(=O)[nH]c(CSC7CCOCC7)nc6c5)CC4)CC3)nc2)C(=O)N1` (centres unmarked) [Example 69, 3-((6-(4-(2-(4-(((5-fluoro-4-oxo-2-(((tetrahydro-2H-pyran-4-yl)thio)methyl)-3,4-dihydroquinazolin-7-yl)oxy)methyl)piperidin-1-yl)ethyl)piperazin-1-yl)pyridin-3-yl)amino)piperidine-2,6-dione], for which the DC50 (read-out: DC50) was less than 100 nM.
For the compound `O=C1CCN(c2ccc(N3CCN(CCN4CCC(COc5cc(F)c6c(=O)[nH]c(CSC7CCOCC7)nc6c5)CC4)CC3)cc2)C(=O)N1` [Example 70, 1-(4-(4-(2-(4-(((5-fluoro-4-oxo-2-(((tetrahydro-2H-pyran-4-yl)thio)methyl)-3,4-dihydroquinazolin-7-yl)oxy)methyl)piperidin-1-yl)ethyl)piperazin-1-yl)phenyl)dihydropyrimidine-2,4(1H,3H)-dione], the half-maximal degradation concentration (DC50) (read-out: DC50) is less than 100 nM.
